Key:
MAO-A = molecular target: T1, MAO-A (Homo sapiens, UniProt P21397); assay: MAO-A enzymatic activity assay (MAO-A Inhibitor Screening Kit, fluorimetric detection of H2O2); assay type: biochemical; conditions: 25°C, 15 min kinetic read; mean (95% confidence interval), three experiments
T1 construct: purchased BioVision, Inc, Milpitas, CA
T1 sequence (P21397 1-527): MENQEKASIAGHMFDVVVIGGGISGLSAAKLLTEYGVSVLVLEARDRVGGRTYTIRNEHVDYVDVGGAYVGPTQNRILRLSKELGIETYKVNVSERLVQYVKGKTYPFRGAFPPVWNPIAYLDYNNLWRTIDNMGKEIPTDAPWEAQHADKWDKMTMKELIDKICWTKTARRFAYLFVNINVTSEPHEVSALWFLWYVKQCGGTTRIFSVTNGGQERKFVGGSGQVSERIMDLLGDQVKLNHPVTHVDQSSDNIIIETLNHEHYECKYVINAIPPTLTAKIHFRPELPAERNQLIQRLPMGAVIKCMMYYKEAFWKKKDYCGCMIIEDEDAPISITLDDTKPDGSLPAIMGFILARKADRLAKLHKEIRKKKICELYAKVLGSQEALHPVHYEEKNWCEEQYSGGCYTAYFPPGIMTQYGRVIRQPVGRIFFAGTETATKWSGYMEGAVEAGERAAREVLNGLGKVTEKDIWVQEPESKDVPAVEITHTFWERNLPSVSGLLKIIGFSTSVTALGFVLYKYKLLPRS
Protocol: The experiments were conducted following the manufacturer’s (BioVision, Inc, Milpitas, CA) instructions and were based on the fluorimetric detection of H2O2, a byproduct of the enzymatic activity of MAO-A, by measuring the fluorescence (Excitation/Emission at 535/587 nm) kinetically at 25°C for 15 min using a Tecan Spark plate reader (Tecan Group Ltd, Männedorf, Switzerland).
Relative inhibition of MAO-A was calculated as a percentage using the following Eq. 2: %Relative inhibition=((Slope of EC−Slope of S)/Slope of EC)×100 (2)
The slopes for all samples, either containing Enzyme Control (EC) or test substance (S), were calculated by dividing the net change in relative fluorescence units (ΔRFU; RFU2–RFU1) by the time interval (Δt; t2 –t1).

full-length WT TPH1 = molecular target: T2, full-length WT TPH1 (Homo sapiens, UniProt P17752); assay: Tryptophan hydroxylase enzymatic activity assay, full-length WT TPH1; assay type: biochemical; conditions: (95% confidence interval)
T2 construct: made in house
T2 sequence (P17752 1-444): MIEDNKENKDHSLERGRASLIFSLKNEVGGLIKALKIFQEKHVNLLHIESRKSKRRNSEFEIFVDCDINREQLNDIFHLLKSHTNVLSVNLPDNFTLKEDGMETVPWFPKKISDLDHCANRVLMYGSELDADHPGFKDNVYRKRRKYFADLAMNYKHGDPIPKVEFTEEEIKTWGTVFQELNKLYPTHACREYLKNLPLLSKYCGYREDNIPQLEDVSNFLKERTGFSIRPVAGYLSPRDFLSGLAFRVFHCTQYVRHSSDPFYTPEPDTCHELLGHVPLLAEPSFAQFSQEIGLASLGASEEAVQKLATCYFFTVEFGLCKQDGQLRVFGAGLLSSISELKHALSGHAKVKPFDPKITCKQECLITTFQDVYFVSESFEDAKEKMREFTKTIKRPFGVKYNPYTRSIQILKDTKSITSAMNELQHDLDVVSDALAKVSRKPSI
Text: The […] human TPH1 gene was cloned into the pET23a vector (six-His C-terminal fusion; Merck KGaA, Darmstadt, Germany) between the NdeI and XhoI restriction sites, and expressed and purified as described previously ([Wang et al., 2002]; [Betari et al., 2020]). Truncated TPH1 was used since the full-length enzyme tends to aggregate in bacteria and yeast extracts and during purification ([Wang et al., 2002]; [McKinney et al., 2005]), resulting in a much lower protein yield compared to the truncated version. Enzymatic activity of truncated TPH1 is equal to that of the full-length protein ([Betari et al., 2020]). […] Full-length WT TPH1 and TPH2 were expressed as N-terminal six-His-maltose-binding protein fusion proteins in pETM-41 and were cleaved and purified as described previously ([McKinney et al., 2004]; [Winge et al., 2007]). Human WT PAH and TH were expressed and isolated as described previously ([[…] et al., 2012]; [Bezem et al., 2016]). […] Control experiments were performed in the presence of 1% DMSO in the absence of ligand. […] 5-hydroxy tryptophan (5-OH-Trp) was quantified using High Performance Liquid Chromatography (HPLC) essentially as described previously with minor modifications ([McKinney et al., 2004]; [[…] et al., 2020]).

In the case of COc1ccc2[nH]c([S+]([O-])Cc3ncc(C)c(OC)c3C)nc2c1 (centres unmarked) [Omeprazole], the IC50 (MAO-A) is reported as 89.4 µM and the IC50 (full-length WT TPH1) is reported as 3.55 µM.
